Results published in ChEMBL document CHEMBL1201862, “PubChem BioAssay data set” (2004).
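Protocol summary: plate cells (96-well), add compound at 5 concentrations, incubate 48 h, interpolate endpoints linearly. GI50 is the concentration that inhibits growth by half.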 Activity calls are given as the source filed them. No stated cut-off is given here; in the data, active = GI50 up to about 1.1 µM and inactive = higher.

Key:
Assay in all cases: NCI-60 cell line screen, 48 h
Malme-3M = test system: Malme-3M
OVCAR-3 = test system: OVCAR-3
SK-OV-3 = test system: SK-OV-3
SK-MEL-2 = test system: SK-MEL-2
UACC-257 = test system: UACC-257
M14 = test system: M14
SK-MEL-28 = test system: SK-MEL-28
A549 = test system: A549
IGROV-1 = test system: IGROV-1
SNB-75 = test system: SNB-75
SN12C = test system: SN12C
HL-60 = test system: HL-60
CCRF-CEM = test system: CCRF-CEM
CAKI-1 = test system: CAKI-1
K562 = test system: K562
COLO 205 = test system: COLO 205
OVCAR-8 = test system: OVCAR-8
OVCAR-5 = test system: OVCAR-5
NCI-H460 = test system: NCI-H460
HCC 2998 = test system: HCC 2998

Row | Compound | GI50 (Malme-3M) | GI50 (OVCAR-3) | GI50 (SK-OV-3) | GI50 (SK-MEL-2) | GI50 (UACC-257) | GI50 (M14) | GI50 (SK-MEL-28) | GI50 (A549) | GI50 (IGROV-1) | GI50 (SNB-75) | GI50 (SN12C) | GI50 (HL-60) | GI50 (CCRF-CEM) | GI50 (CAKI-1) | GI50 (K562) | GI50 (COLO 205) | GI50 (OVCAR-8) | GI50 (OVCAR-5) | GI50 (NCI-H460) | GI50 (HCC 2998)
1 | Cc1ccc(NC(=O)C2C(=O)N(c3ccc(C)c(C)c3)C(=O)/C2=N\NC(N)=S)cc1C (stereo unspecified) | > 100 µM (inactive) | > 100 µM (inactive) | 45 µM (inactive) | > 100 µM (inactive) | > 100 µM (inactive) | > 100 µM (inactive) | > 100 µM (inactive) | > 100 µM (inactive) | 96.4 µM (inactive) | > 100 µM (inactive) | 53.2 µM (inactive) | > 100 µM (inactive) | 47.4 µM (inactive) | > 100 µM (inactive) | 60.7 µM (inactive) |  |  |  |  | 
2 | Cc1[nH]c(-c2ccccc2)c(O)c1C(=O)OC1CC(C)CCC1C(C)C (stereo unspecified) | 18.7 µM (inactive) | 12.7 µM (inactive) | 15.3 µM (inactive) | 14.3 µM (inactive) | 15.7 µM (inactive) | 15.6 µM (inactive) | 16.3 µM (inactive) | 13.4 µM (inactive) | 15.6 µM (inactive) | 17.9 µM (inactive) | 15.7 µM (inactive) | 16.4 µM (inactive) | 11 µM (inactive) | 17.7 µM (inactive) | 50 µM (inactive) | 14.8 µM (inactive) | 16 µM (inactive) | 14.2 µM (inactive) | 15.3 µM (inactive) | 
3 | Nc1nc(SCCc2ccccc2)nc2nc3c(c(-c4ccccc4)c12)CCCC3 | > 100 µM (inactive) | > 100 µM (inactive) | 99.1 µM (inactive) |  | > 100 µM (inactive) | > 100 µM (inactive) | > 100 µM (inactive) | > 100 µM (inactive) | > 100 µM (inactive) | 34.9 µM (inactive) | > 100 µM (inactive) | > 100 µM (inactive) | > 100 µM (inactive) | > 100 µM (inactive) | > 100 µM (inactive) | > 100 µM (inactive) | > 100 µM (inactive) |  | > 100 µM (inactive) | 
4 | O=C(NC(Cc1ccc(I)cc1)C(=O)O)c1cccc(Br)c1 (stereo unspecified) | 70.1 µM (inactive) | 54.6 µM (inactive) | > 100 µM (inactive) | > 80.7 µM (inactive) | > 100 µM (inactive) |  | 49.8 µM (inactive) | > 100 µM (inactive) | > 100 µM (inactive) | 39.2 µM (inactive) | > 100 µM (inactive) | > 100 µM (inactive) | 69.2 µM (inactive) | > 100 µM (inactive) | 48.6 µM (inactive) | > 100 µM (inactive) | > 100 µM (inactive) | > 100 µM (inactive) | 96.8 µM (inactive) | 22.4 µM (inactive)
5 | Cc1cc([N+](=O)[O-])ccc1/N=N/C(=O)NNc1ccc([N+](=O)[O-])cc1C | 17.3 µM (inactive) | 18.8 µM (inactive) |  | 21 µM (inactive) | 20 µM (inactive) | 13.6 µM (inactive) | 16.4 µM (inactive) | 15.8 µM (inactive) | 19.6 µM (inactive) | 17 µM (inactive) | 16.7 µM (inactive) | 20 µM (inactive) | 20.1 µM (inactive) | 14.8 µM (inactive) | 19.5 µM (inactive) |  | 14.7 µM (inactive) | 17.1 µM (inactive) | 17.6 µM (inactive) | 16 µM (inactive)
6 | O=S(O)CCCCCSSc1ccccc1 | 10 µM (inactive) | 43.7 µM (inactive) | > 100 µM (inactive) | 18.2 µM (inactive) | 39 µM (inactive) | 43.8 µM (inactive) | 61.1 µM (inactive) |  |  | 37.3 µM (inactive) | 27.8 µM (inactive) | 14.1 µM (inactive) | 4.5 µM (inactive) |  | 15.3 µM (inactive) |  |  | > 100 µM (inactive) | 68.9 µM (inactive) | > 100 µM (inactive)
7 | C=C1C(O)C2(O)OCC34C(CC5C(C)=CC(=O)C(O)C5(C)C23)OC(=O)C(OC(=O)C/C=C/CCCCCCCC)C14 (stereo unspecified) | 0.02 µM (active) |  | 0.056 µM (active) | 0.0241 µM (active) |  |  | 0.02 µM (active) | 0.0249 µM (active) | 0.02 µM (active) | 0.0228 µM (active) | 0.0275 µM (active) | 0.02 µM (active) | 0.02 µM (active) | 0.0449 µM (active) | 0.02 µM (active) | 0.0241 µM (active) | 0.02 µM (active) | 0.112 µM (active) |  | 0.02 µM (active)
8 | CCC1NC(/N=N/c2ccc([N+](=O)[O-])cc2)(P(=O)(OC(C)C)OC(C)C)OC1=O (stereo unspecified) | > 100 µM (inactive) | > 100 µM (inactive) | > 100 µM (inactive) | > 100 µM (inactive) | > 100 µM (inactive) | > 100 µM (inactive) | > 100 µM (inactive) | > 100 µM (inactive) | > 100 µM (inactive) | 23.6 µM (inactive) | > 100 µM (inactive) | > 100 µM (inactive) | > 100 µM (inactive) | > 100 µM (inactive) | > 100 µM (inactive) | > 100 µM (inactive) | > 100 µM (inactive) | > 100 µM (inactive) |  | > 100 µM (inactive)
9 | O=C1C[C@H](c2ccccc2)C2(C(=O)c3ccccc3C2=O)[C@H](c2ccccc2)C1 | > 100 µM (inactive) | > 100 µM (inactive) | 19.5 µM (inactive) | 16.6 µM (inactive) |  | > 100 µM (inactive) | > 100 µM (inactive) |  | 9.08 µM (inactive) | 27 µM (inactive) | > 100 µM (inactive) | > 100 µM (inactive) | > 100 µM (inactive) | > 100 µM (inactive) | > 100 µM (inactive) | 88.7 µM (inactive) | > 100 µM (inactive) | > 100 µM (inactive) | > 100 µM (inactive) | > 100 µM (inactive)
10 | CC(Oc1ccc(Cl)cc1Cl)C(=O)NN1C(=O)CC(=O)NC1=S (stereo unspecified) | > 100 µM (inactive) | > 100 µM (inactive) | > 100 µM (inactive) | 80.5 µM (inactive) | > 100 µM (inactive) | > 100 µM (inactive) | > 100 µM (inactive) | > 100 µM (inactive) | > 100 µM (inactive) | > 100 µM (inactive) | > 100 µM (inactive) | 30.9 µM (inactive) |  | 82 µM (inactive) | > 100 µM (inactive) | > 100 µM (inactive) | > 100 µM (inactive) | > 100 µM (inactive) | > 100 µM (inactive) | > 100 µM (inactive)
11 | CON(C)c1nc(N)c(C#N)c(C#N)c1C#N | > 10 µM (inactive) | 2.28 µM (inactive) | > 10 µM (inactive) | > 10 µM (inactive) |  | > 10 µM (inactive) | > 10 µM (inactive) | > 10 µM (inactive) | > 10 µM (inactive) | > 10 µM (inactive) | > 10 µM (inactive) | 4.16 µM (inactive) | 4.02 µM (inactive) | > 10 µM (inactive) |  | > 10 µM (inactive) | > 10 µM (inactive) | > 10 µM (inactive) | > 10 µM (inactive) | > 10 µM (inactive)
12 | C/C(=C\c1ccccc1)n1c(=O)cc(C)n1C |  | > 100 µM (inactive) | > 100 µM (inactive) | > 100 µM (inactive) | > 100 µM (inactive) | > 100 µM (inactive) | > 100 µM (inactive) | > 100 µM (inactive) | > 100 µM (inactive) | > 100 µM (inactive) | > 100 µM (inactive) |  | > 100 µM (inactive) | > 100 µM (inactive) | > 100 µM (inactive) | > 100 µM (inactive) | > 100 µM (inactive) | > 100 µM (inactive) | > 100 µM (inactive) | > 100 µM (inactive)
13 | CSc1nc(NC2OCC(O)C(O)C2O)c(N)c(=O)n1C (stereo unspecified) | > 100 µM (inactive) | > 100 µM (inactive) | > 100 µM (inactive) | > 100 µM (inactive) | > 100 µM (inactive) |  | > 100 µM (inactive) | > 100 µM (inactive) | > 100 µM (inactive) | 51.6 µM (inactive) | > 100 µM (inactive) | > 100 µM (inactive) | > 100 µM (inactive) |  | > 100 µM (inactive) | > 100 µM (inactive) | > 100 µM (inactive) | > 100 µM (inactive) | > 100 µM (inactive) | > 100 µM (inactive)
14 | COC(C[C@H]1CCCC[C@]1(O)/C(=C\CO[Si](C(C)C)(C(C)C)C(C)C)Sc1ccccc1)OC | 22.5 µM (inactive) |  | > 100 µM (inactive) | 22.7 µM (inactive) | 42.4 µM (inactive) | 31.6 µM (inactive) | 50.6 µM (inactive) | 28.6 µM (inactive) | 52.7 µM (inactive) | 18.1 µM (inactive) | 39.5 µM (inactive) | 38.2 µM (inactive) | 27 µM (inactive) | 32.4 µM (inactive) | 31.3 µM (inactive) | 20.9 µM (inactive) | 49.8 µM (inactive) | 38.4 µM (inactive) | 60 µM (inactive) | 16.5 µM (inactive)
15 | O=P(Nc1ccc(Cl)cc1)(Oc1ccccc1)N(CCCl)CCCl (stereo unspecified) | > 100 µM (inactive) | > 100 µM (inactive) | > 100 µM (inactive) | 35.5 µM (inactive) | > 100 µM (inactive) | > 100 µM (inactive) | > 100 µM (inactive) | > 100 µM (inactive) | > 100 µM (inactive) | 33.7 µM (inactive) | > 100 µM (inactive) |  | > 100 µM (inactive) | > 100 µM (inactive) | > 100 µM (inactive) | > 100 µM (inactive) | > 100 µM (inactive) | > 100 µM (inactive) |  | > 100 µM (inactive)
